Measurements taken from PMC9728226, “Suppressive Effects of a Truncated Inhibitor K562 Protein-Derived Peptide on Two Proinflammatory Cytokines, IL-17 and TNF-α” (Journal of Microbiology and Biotechnology, 2020).
Peptide text beside a SMILES is read from it.

Legend:
[1] = system: mTNF-α secretion by J774A.1 cells; assay: mTNF-α secretion by LPS-stimulated J774A.1 cells, ELISA; type: cell-based, mouse; settings: 24 h, mean of n = 3; for inhibition of mTNF-α: J774A.1 cells, 100 ng/ml LPS, Fig. 3D
Description: The murine monocyte/macrophage cell line J774A.1 was obtained from the American Type Culture Collection (ATCC, USA), grown in Dulbecco’s modified Eagle’s medium (Gibco Laboratories, USA), and cultured at 37°C in humidified 5% CO2. The culture medium was supplemented with 10% fetal bovine serum and 2 mM glutamine. The cells were seeded into 24-well culture plates at a density of 1 × 10^5/ml and allowed to adhere overnight. Thereafter, the medium was replaced with fresh medium. The cells were pre-treated with DMS or a peptide (P1, P2, P3, P4, or P4S) and then stimulated with 100 ng/ml of lipopolysaccharide (LPS). Supernatants were collected after 24 h and stored at -20°C. Concentrations of mouse TNF-α (mTNF-α) were measured using ELISA (Mouse TNF-α DuoSet ELISA Kit; R&D Systems Europe, UK) according to the manufacturer’s instructions. All tests were repeated three times independently, and the results are expressed as means ± SDs.

[2] = system: Th17 cell differentiation (mouse IL-17); type: cell-based; settings: 1.0 μg/ml; second experiment (Fig. 3B), control 0.1% DMSO; IL-17 ELISA; mean of n = 3
Description: Naïve CD4^+ T cells were isolated from the spleen of wild-type Balb/c mice via magnetic-activated cell sorting using a CD4^+ T Cell Isolation Kit (Miltenyi Biotec, Germany), in accordance with the manufacturer’s instructions. The RPMI medium for stimulating Th17 cell differentiation included 10 μg/ml anti-CD3 (eBioscience, USA), 1.5 μg/ml anti-CD28 (eBioscience), 5 ng/ml transforming growth factor-β (R&D Systems, USA), and 20 ng/ml IL-6 (BioLegend, USA). After cells had been cultured in this conditioned medium for 2 days at 37°C, 100 μl of the supernatant was analyzed for mouse IL-17 (mIL-17) using an IL-17-specific enzyme-linked immunosorbent assay (ELISA). All tests were repeated three times independently, and the means and standard deviations (SDs) from three tests were calculated.

Compound | inhibition of mTNF-α ([1]; 0.1 μg/ml) [%] | inhibition of mTNF-α ([1]; 1.0 μg/ml) [%] | inhibition of mIL-17 [2] [%] | inhibition rate against mTNF-α ([1]; 1 μg/ml, J774A.1 cells pre-treated, then 100 ng/ml LPS, vs LPS-only group, Fig. 3C) [%]
YPATMDDMA [P4S, 9-mer human tIK-derived peptide, fragment homolog of P4] | 45.5 | 50.7 | 43.8 | 
CSCC[C@H](NC(=O)[C@H](CC(=O)O)NC(=O)[C@H](CC(=O)O)NC(=O)[C@H](CCSC)NC(=O)[C@@H](NC(=O)[C@H](C)NC(=O)[C@@H]1CCCN1C(=O)[C@@H](N)Cc1ccc(O)cc1)[C@@H](C)O)C(=O)N[C@@H](C)C(=O)N[C@H](C(=O)N[C@@H](CC(=O)O)C(=O)N[C@@H](CO)C(=O)N[C@@H](CC(=O)O)C(=O)N[C@@H](CCC(=O)O)C(=O)N[C@@H](CCC(=O)O)C(=O)N[C@H](C(=O)N[C@@H](CC(=O)O)C(=O)N[C@@H](Cc1ccc(O)cc1)C(=O)O)C(C)C)C(C)C [P4] (H-YPATMDDMAVDSDEEVDY-OH; N-terminus and C-terminus assumed) |  |  | 42.4 | 50.2
